# Results published in US20240300980A1, “HETEROCYCLIC COMPOUNDS AS KRAS INHIBITOR, AND PREPARATION THEREFOR AND USE THEREOF IN TREATMENT” (SHANGHAI KECHOW PHARMA, INC., priority 2021, published 2024).
# Test system: AGS cells (KRAS^G12D)
# Assay: Detection of cell proliferation in vitro by MTT/MTS method (cell activity experiment)
# Format: cell-based
# Details: AGS cells; MTT/MTS; 3 days of drug treatment; read-out: AGS IC50
# Outline: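 After 3-day compound exposure (final DMSO 0.5%), viability of AGS (KRAS G12D) cells, plated 1000/well one day before dosing, was measured at 490 nm following 4 h MTT or MTS incubation. IC50 was fitted from dose–effect curves relative to DMSO-treated wells.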
row,Compound,IC50 [nM]
1,"CC1CCCc2cc(O)cc(-c3ccc4c(N5C[C@H]6CC[C@@H](C5)N6)nc(OC[C@@]56CCCN5C[C@H](F)C6)nc4c3F)c21 (single isomer, unassigned) [Example 288]",7.2

# Same assay, conditions: Homo sapiens, AGS, 72 h, AGS cells; MTT/MTS; 3 days of drug treatment; read-out: AGS IC50
row,Compound,IC50 [nM]
1,"CCc1c(F)ccc2cc(O)cc(C3=C(F)c4nc(OC[C@@]56CCCN5C[C@H](F)C6)nc(N5C[C@H]6CC[C@@H](C5)N6)c4C4=NCCN43)c12 [Example 403, 4-(10-((1R,5S)-3,8-diazabicyclo[3.2.1]octan-3-yl)-6-fluoro-8-(((2R,7aS)-2-fluorotetrahydro-1H-pyrrolizin-7a(5H)-yl)methoxy)-2,3-dihydroimidazo[1′,2′:1,2]pyrido[4,3-d]pyrimidin-5-yl)-5-ethyl-6-fluoronaphthalen-2-ol]",60
2,"CC1CCCc2cc(O)cc(-c3c(Cl)cc4c(N5C[C@H]6CC[C@@H](C5)N6)nc(OC[C@@]56CCCN5C[C@H](F)C6)nc4c3F)c21 (stereo partly drawn) [Example 301, 4-(4-((1R,5S)-3,8-diazabicyclo[3.2.1]octan-3-yl)-6-chloro-8-fluoro-2-(((2R,7aS)-2-fluorotetrahydro-1H-pyrrolizin-7a(5H)-yl)methoxy)quinazolin-7-yl)-5-methyl-5,6,7,8-tetrahydronaphthalen-2-ol]",28
3,"C#Cc1cccc2cc(O)cc(-c3ncc4c(C5C[C@H]6CC[C@@H](C5)N6)nc(OC[C@@]56CCCN5C[C@H](F)C6)nc4c3F)c12 (stereo partly drawn) [Example 83, 4-(4-((1R,5S)-8-azabicyclo[3.2.1]octan-3-yl)-8-fluoro-2-(((2R,7aS)-2-fluorotetrahydro-1H-pyrrolizin-7a(5H)-yl)methoxy)pyrido [4,3-d]pyrimidin-7-yl)-5-ethynylnaphthalen-2-ol]",> 2500
4,"Oc1cc(-c2ccc3c(N4C[C@H]5CC[C@@H](C4)N5)nc(OC[C@@]45CCCN4C[C@H](F)C5)nc3n2)c2c(F)c(F)ccc2c1 [Example 142, 4-(4-((1R,5S)-3,8-diazabicyclo[3.2.1]octan-3-yl)-2-(((2R,7aS)-2-fluorotetrahydro-1H-pyrrolizin-7a(5H)-yl)methoxy)pyrido[2,3-d]pyrimidin-7-yl)-5,6-difluoronaphthalen-2-ol]",> 2500
5,"C#Cc1c(F)ccc2cc(O)cc(-c3ncc4c(N5CC6CCC(C5)C6SC)nc(OC[C@@]56CCCN5C[C@H](F)C6)nc4c3F)c12 (stereo partly drawn) [Example 64, 5-ethynyl-6-fluoro-4-(8-fluoro-2-(((2R,7aS)-2-fluorotetrahydro-1H-pyrrolizin-7a(5H)-yl)methoxy)-4-((1R,5S, 8R)-8-(methylthio)-3-azabicyclo[3.2.1]octan-3-yl)pyrido[4,3-d]pyrimidin-7-yl) naphthalen-2-ol]",> 10000
6,"CC1CCCc2cc(O)cc(-c3c(F)c4nc(OC[C@@]56CCCN5C[C@H](F)C6)nc(N5C[C@H]6CC[C@@H](C5)N6)c4c4nccn34)c21 (stereo partly drawn) [Example 414, 4-(10-((1R,5S)-3,8-diazabicyclo[3.2.1]octan-3-yl)-6-fluoro-8-(((2R,7aS)-2-fluorotetrahydro-1H-pyrrolizin-7a(5H)-yl)methoxy)imidazo[1′,2′:1,2]pyrido[4,3-d]pyrimidin-5-yl)-5-methyl-5,6,7,8-tetrahydronaphthalen-2-ol]",45
7,"CC1CCCc2cc(O)cc(-c3ncc4c(N5C[C@H]6CC[C@@H](C5)N6)nc(OC[C@@]56CCCN5C[C@H](F)C6)nc4c3F)c21 (stereo partly drawn) [Example 224, 4-(4-((1R,5S)-3,8-diazabicyclo[3.2.1]octan-3-yl)-8-fluoro-2-(((2R,7aS)-2-fluorotetrahydro-1H-pyrrolizin-7a(5H)-yl)methoxy)pyrido[4,3-d]pyrimidin-7-yl)-5-methyl-5,6,7,8-tetrahydronaphthalen-2-ol]",4.8
8,"[O-][S+]1C2CCC1CN(c1nc(OC[C@@]34CCCN3C[C@H](F)C4)nc3c(F)c(-c4cc(O)cc5cccc(F)c45)ccc13)C2 (stereo partly drawn) [Example 168, (1R,5S,8R)-3-(8-fluoro-7-(8-fluoro-3-hydroxynaphthalen-1-yl)-2-(((2R,7aS)-2-fluorotetrahydro-1H-pyrrolizin-7a(5H)-yl)methoxy)quinazolin-4-yl)-8-thia-3-azabicyclo[3.2.1]octane 8-oxide]",> 2500
9,"CC1(C)CCCc2cc(O)cc(-c3ncc4c(N5C[C@H]6CC[C@@H](C5)N6)nc(OC[C@@]56CCCN5C[C@H](F)C6)nc4c3F)c21 [Example 254, 4-(4-((1R,5S)-3,8-diazabicyclo[3.2.1]octan-3-yl)-8-fluoro-2-(((2R,7aS)-2-fluorotetrahydro-1H-pyrrolizin-7a(5H)-yl)methoxy)pyrido[4,3-d]pyrimidin-7-yl)-5,5-dimethyl-5,6,7,8-tetrahydronaphthalen-2-ol]",462
10,"CCC1CCc2cc(O)cc(-c3ccc4c(NCC5(N(C)C)CCC5)nc(OC[C@@]56CCCN5C[C@H](F)C6)nc4c3F)c21 (stereo partly drawn) [Example 429, 7-(4-(((1-(dimethylamino)cyclobutyl)methyl)amino)-8-fluoro-2-(((2R,7aS)-2-fluorotetrahydro-1H-pyrrolizin-7a(5H)-yl)methoxy)quinazolin-7-yl)-1-ethyl-2,3-dihydro-1H-inden-5-ol]",75
11,"CC[C@@H]1CCCc2cc(O)cc(-c3ncc4c(N5CC6CCC(C5)N6)nc(OC[C@@]56CCCN5C[C@H](F)C6)nc4c3F)c21 (single isomer, unassigned) [Example 228, (R)-4-(4-((1R,5S)-3,8-diazabicyclo[3.2.1]octan-3-yl)-8-fluoro-2-(((2R,7aS)-2-fluorotetrahydro-1H-pyrrolizin-7a(5H)-yl)methoxy)pyrido[4,3-d]pyrimidin-7-yl)-5-ethyl-5,6,7,8-tetrahydronaphthalen-2-ol or (S)-4-(4-((1R,5S)-3,8-diazabicyclo[3.2.1]octan-3-yl)-8-fluoro-2-(((2R,7aS)-2-fluorotetrahydro-1H-pyrrolizin-7a(5H)-yl)methoxy)pyrido[4,3-d]pyrimidin-7-yl)-5-ethyl-5,6,7,8-tetrahydronaphthalen-2-ol]",1090
12,"C#Cc1c(F)ccc2cc(O)cc(-c3ncc4c(N5CC6CCC(C5)C6S(=O)(=O)C(F)(F)F)nc(OC[C@@]56CCCN5C[C@H](F)C6)nc4c3F)c12 (stereo partly drawn) [Example 67, 5-ethynyl-6-fluoro-4-(8-fluoro-2-(((2R,7aS)-2-fluorotetrahydro-1H-pyrrolizin-7a(5H)-yl)methoxy)-4-((1R,5S, 8R)-8-((trifluoromethyl)sulfonyl)-3-azabicyclo[3.2.1]octan-3-yl)pyrido[4,3-d]pyrimidin-7-yl)naphthalen-2-ol]",> 10000
13,"C#Cc1c(F)ccc2cc(O)cc(-c3ccc4c(N5CCC(N)C5)nc(OC[C@@]56CCCN5C[C@H](F)C6)nc4c3F)c12 (stereo partly drawn) [Example 111, 4-(4-(3-aminopyrrolidin-1-yl)-8-fluoro-2-(((2R,7aS)-2-fluorotetrahydro-1H-pyrrolizin-7a(5H)-yl)methoxy)quinazolin-7-yl)-5-ethynyl-6-fluoronaphthalen-2-ol]",> 2500
14,"CCC1c2c(-c3ncc4c(N5C[C@H]6CC[C@@H](C5)N6)nc(OC[C@@]56CCCN5C[C@H](F)C6)nc4c3F)cc(O)cc2C2CC21 (stereo partly drawn) [Example 355, 5-(4-((1R,5S)-3,8-diazabicyclo[3.2.1]octan-3-yl)-8-fluoro-2-(((2R,7aS)-2-fluorotetrahydro-1H-pyrrolizin-7a(5H)-yl)methoxy)pyrido[4,3-d]pyrimidin-7-yl)-6-ethyl-1,1a,6,6a-tetrahydrocyclopropa[a]inden-3-ol]",20
